Results: patent US20100152188A1, “Novel Heterocyclic Compounds” (priority 2005, published 2010)
Where two headings read alike, the source gives them in different places.

Tests used:
[1] = test system: NCIH460, HCT116, MDAMB-231/U 251; experiment: Anti-cancer screen, mean GI50 over the cell lines; format: cell-based; conditions: in µM
Protocol: (§1) Experimental drugs are screened for anti-cancer activity in three cell lines for their GI50, TGI and LC50 values (using five concentrations for each compound). The cell lines are maintained in DMEM containing 10% fetal bovine serum. 96 well micro titer plates are inoculated with cells in 100 µL for 24 hours at 37° C., 5% CO2, 95% air and 100% relative humidity. 5000 HCT 116 cells/well, 5000 NCIH 460 cells/well and 5000 U251 cells/well are plated. A separate plate with these cell lines is also inoculated to determine cell viability before the addition of the compounds (T0).
(§2) Following 24-hour incubation, experimental drugs are added to the 96 well plates. Each plate contains one of the above cell lines and the following in triplicate: five different concentrations (0.01, 0.1, 1, 10 and 100 µM) of four different compounds, appropriate dilutions of a cytotoxic standard and control (untreated) wells. Compounds are dissolved in DMSO to make 20 mM stock solutions on the day of drug addition and frozen at −20° C. Serial dilutions of these 20 mM stock solutions are made in complete growth medium such that 100 µL of these drug solutions in medium, of final concentrations equaling 0.01, 0.1, 1, 10 and 100 µM can be added to the cells in triplicate. Standard drugs whose anti-cancer activity has been well documented and which are regularly used are doxorubicin and SAHA.
(§3) For T0 measurement, 24 hours after seeding the cells, 10 µL of 3-(4,5-Dimethyl-2-thiazolyl)-2,5-diphenyl-2H-tetrazolium (MTT) solution per well is added and incubation carried out for 3 hours at 37° C., 5% CO2, 95% air and 100% relative humidity, protected from light. Cells incubated with compounds for 48 hours are treated similarly except with the addition of 20 µl MTT solution per well and a subsequent incubation under the same conditions. After 3 hours of MTT incubation, well contents are aspirated carefully followed by addition of 150 µL DMSO per well. Plates are agitated to ensure solution of the formazan crystals in DMSO and absorbance read at 570 nm.
(§4) Percent growth is calculated for each compound's concentration relative to the control and zero measurement wells (T0; viability right before compound addition). If a test well's O.D. value is greater than the T0 measurement for that cell line

HDAC = HDAC inhibition; format: biochemical; conditions: for HDAC Inhibition 1 μM: compound at 1 μM; for HDAC Inhibition 10 μM: compound at 10 μM
HCT116 = experiment: Anti-cancer screen (MTT), HCT116; format: cell-based; conditions: Homo sapiens, HCT-116, 48 hours with compound, tested at 0.01-100 µM; for CC50: read-out: HCT116 LC50
Protocol: as §1, §2, §3, §4
(§5) %Growth=(test−zero)/(control−zero)×100
(§6) If a test well's O.D. value is lower than the T0 measurement for that cell line, then,
(§7) %Growth=(test−zero)/zero×100

NCIH460 = experiment: Anti-cancer screen (MTT), NCIH460; format: cell-based; conditions: Homo sapiens, NCI-H460, 48 hours with compound, tested at 0.01-100 µM
Protocol: as §1, §2, §3, §4, §5, §6, §7

MDAMB-231/U 251 = experiment: Anti-cancer screen (MTT), MDAMB-231/U 251; format: cell-based; conditions: for CC50: read-out: MDAMB-231/U 251 LC50
Protocol: as §1, §2, §3, §4, §5, §6, §7

[2] = 48 hours with compound, MTT, tested at 0.01-100 µM

| Compound | Mean GI50 [1] | HDAC Inhibition 1 μM (HDAC) | HDAC Inhibition 10 μM (HDAC) | GI50 (HCT116) [µM] | IC (TGI) (HCT116) [µM] | LC50 (concentration giving 50% net cell kill relative to T0) (HCT116) [µM] | GI50 (NCIH460) [µM] | IC (TGI) (NCIH460) [µM] | LC50 (NCIH460) [µM] | CC50 (MDAMB-231/U 251; 48 h) [µM] | GI50 (MDAMB-231/U 251; [2]) [µM] | IC (TGI) (MDAMB-231/U 251; [2]) [µM] | CC50 (HCT116) [µM] | CC50 (MDAMB-231/U 251; [2]) [µM] |
| --- | --- | --- | --- | --- | --- | --- | --- | --- | --- | --- | --- | --- | --- | --- |
| O=C(Cc1csc(NC(=O)OCc2ccsc2)n1)NO [Example 3, 3-Thienylmethyl{4-[2-(hydroxyamino)-2-oxoethyl]-1,3-thiazol-2-yl}carbamate] | 31 | −4.03 | 22.89 | > 100 | > 100 | > 100 | 30 | > 100 | > 100 | > 100 | 32 | > 100 |  |  |
| O=C(Cc1csc(NC(=O)OCc2ccncc2)n1)NO [Example 4, Pyridin-4-ylmethyl{4-[2-(hydroxyamino)-2-oxoethyl]-1,3-thiazol-2-4.yl}carbamate] | 13 | 5.6 | 38.13 | > 100 | > 100 | > 100 | 20 | > 100 | > 100 | > 100 | 6 | > 100 |  |  |
| O=C(Cc1csc(NC(=O)OCC2COc3ccccc3O2)n1)NO (stereo not drawn) [Example 5, 2,3-Dihydro-1,4-benzodioxin-2-ylmethyl{4-[2-(hydroxyamino)-2-oxoethyl]1,3-thiazol-2-yl}carbamate] | 21.3 | 0.65 | 29.29 | 40 | 80 | > 100 | 18 | 76 | > 100 | > 100 | 6 | 78 |  |  |
| O=C(Cc1csc(NC(=O)OCc2ccc(Br)s2)n1)NO [Example 6, (5-Bromo-2-thienyl)methyl{4-[2-(hydroxyamino)-2-oxoethyl]-1,3-thiazol-2-yl}carbamate] | 24 | 8.8 | 47.27 | 65 | > 100 |  | 2 | 80 | > 100 |  | 5 | 82 | > 100 | > 100 |
| O=C(Cc1csc(NC(=O)OCc2cc(Br)cs2)n1)NO [Example 7, (4-Bromo-2-thienyl)methyl{4-[2-(hydroxyamino)-2-oxoethyl]-1,3-thiazol-2-yl}carbamate] | 16.7 | 7.07 | 46.41 | 25 | 80 |  | 10 | 70 | > 100 |  | 15 | 74 | > 100 | > 100 |
| Cc1ncsc1COC(=O)Nc1nc(CC(=O)NO)cs1 [Example 8, (4-Methyl-1,3-thiazol-5-yl)methyl{4-[2-(hydroxyamino)-2-oxoethyl]-1,3-thiazol-2-yl}carbamate] | >100 | 0.96 | 17.80 | > 100 | > 100 |  | > 100 | > 100 | > 100 |  | 0.5 | > 100 | > 100 | > 100 |
| O=C(Cc1csc(NC(=O)OCc2nc3ccccc3s2)n1)NO [Example 9, 1,3-Benzothiazol-2-ylmethyl{4-[2-(hydroxyamino)-2-oxoethyl]-1,3-thiazol-2-yl}carbamate] | 53 | 17.52 | 46.21 | 48 | > 100 | > 100 | 73 | > 100 | > 100 | > 100 | 38 | > 100 |  |  |
| O=C(Nc1nc(CC(=O)N2CCOCC2)cs1)OCc1cccnc1 [Example 10, pyridin-3-ylmethyl[4-(2-morpholin-4-yl-2-oxoethyl)-1,3-thiazol-2-yl]carbamate] | 26.7 | −9.85 | 0.14 | > 100 | > 100 | > 100 | 55 | > 100 | > 100 | > 100 | 0.4 | 27 |  |  |
| O=C(Nc1nc(CC(=O)N2CCCCC2)cs1)OCc1cccnc1 [Example 12, Pyridin-3-ylmethyl[4-(2-oxo-2-piperidin-1-ylethyl)-1,3-thiazol-2-yl]carbamate] | 50 |  | 10.83 | > 100 | > 100 | > 100 | 50 | 100 | > 100 | > 100 | 50 | > 100 |  |  |
| O=C(Cc1csc(NC(=O)OCc2cccnc2)n1)NC1CCN(Cc2ccccc2)CC1 [Example 17, Pyridin-3-ylmethyl(4-{2-[(1-benzylpiperidin-4-yl)amino]-2-oxoethyl}-1,3-thiazol-2-yl)carbamate] | 54.8 |  | 3.61 | 82 | > 100 | > 100 | 80 | > 100 | > 100 | > 100 | 2.5 | 50 |  |  |
| Nc1ccccc1NC(=O)Cc1csc(NC(=O)OCc2cccnc2)n1 [Example 18, Pyridin-3-ylmethyl(4-{2-[(2-aminophenyl)amino]-2-oxoethyl}-1,3-thiazol-2-yl)carbamate] | >100 | 2.19 | 7.99 | > 100 | > 100 | > 100 | 100 | > 100 | > 100 | > 100 | 12 | > 100 |  |  |
| O=C(Cc1csc(NC(=O)OCc2cccnc2)n1)Nc1ccccc1O [Example 19, Pyridin-3-ylmethyl(4-{2-[(2-hydroxyphenyl)amino]-2-oxoethyl}-1,3-thiazol-2-yl)carbamate] | 14.2 |  | 0.50 | 34 | > 100 | > 100 | 1 | 60 | > 100 | > 100 | 7.6 | 80 |  |  |
| Nc1ccccc1NC(=O)Cc1csc(NC(=O)OCc2nc3ccccc3s2)n1 [Example 21, 1,3-Benzothiazol-2-ylmethyl(4-{2-[(2-aminophenyl)amino]-2-oxoethyl}-1,3-thiazol-2-yl)carbamate] | 9 | 4.41 | 0.57 | 8 | > 100 | > 100 | 15 | > 100 | > 100 | > 100 | 4 | 9 |  |  |
| Nc1ccccc1NC(=O)Cc1csc(NC(=O)OCc2nccs2)n1 [Example 23, 1,3-Thiazol-2-ylmethyl(4-{2-[(2-aminophenyl)amino]-2-oxoethyl}-1,3-thiazol-2-yl)carbamate] | >100 | 11.34 | 5.18 | > 100 | > 100 | > 100 | > 100 | > 100 | > 100 | > 100 | 31 | > 100 |  |  |
